From patent US20060014740A1 (priority 2003, published 2006) come the findings set out here.

One test has as its system PC-3 cells. The test can be described thus: Apoptosis sandwich ELISA (DNA-histone complex), PC-3. Type of test: cell-based, human. The method, then:
(§1) A sandwich ELISA (Roche, Mannheim, Germany) utilizing monoclonal antibodies specific for DNA and histones was used to quantify degree of apoptosis induced by the analogs after 72 h exposure. This assay measures DNA-histone complexes (mono- and oligonucleosomes) released into cytoplasm from the nucleus during apoptosis. RH7777 cells were employed because of nonspecific cytotoxicity of compound 4 in receptor-negative cells as well as receptor-positive prostate cancer cells.
(§2) From the LPL receptor mRNA expression studies (Table 2), it was evident that these cell lines serve as an excellent model system to explore the effects of LPL receptor. Given the structural similarity of SAPs to ceramide (and the known ability of ceramide to induce apoptosis), it was then determined whether the antiproliferative effects of thiazolidine analogs were mediated via apoptotla events. The ability of the analogs to induce apoptosis in LNCaP, PC-3, and RH7777 cells was examined using a quantitative sandwich ELISA that measures DNA-histone complex released during apoptosis. The enrichment factor calculated (as ratio of OD405 in treated and un-treated cells) provides a quantitative assessment of the degree of apoptosis induced. Initially, only two compounds (4 & 5) were used for this study. Apoptotic activity of analog (compound 4) was selective in prostate cancer cells despite nonselective cytotoxicity in RH7777 negative control cells (see Table 5 below). Analog compound 5 induced apoptosis in PC-3 and LNCaP cells, but to a lesser extent in PC-3 cells perhaps due to lower potency in this cell line.
On the technique in general: ELISA stands for enzyme-linked immunosorbent assay.

Test [1] has as its system OVCAR-3 human ovarian cancer cell line. The test can be described thus: SRB cytotoxicity assay, OVCAR-3. The test is classed as cell-based. As to conditions: Homo sapiens, OVCAR-3; Table 8. The method, then:
(§3) For in vitro cytotoxicity screening, 1000 to 5000 cells were plated into each well of 96-well plates depending on growth rate, and exposed to different concentrations of a test compound for 96 h in three to five replicates. All the compounds were dissolved in dimethyl sulfoxide at 5 to 20 mM, and diluted to desired concentrations in complete culture medium. Cell numbers at the end of the drug treatment were measured by the SRB assay (Gududuru et al., “Synthesis and Biological Evaluation of Novel Cytotoxic Phospholipids for Prostate Cancer,” Bioorg. Med. Chem. Lett. 14:4919-4923 (2004); Rubinstein et at., “Comparison of in vitro Anticancer-Drug-Screening Data Generated with a Tetrazolium Assay Versus a Protein Assay Against a Diverse Panel of Human Tumor Cell Lines,” J. Naatl, Cancer Inst. 82:1113-1118 (1990), each of which is hereby incorporated by reference in its entirety). Briefly, the cells were fixed with 10% of trichloroacetic acid, stained with 0.4% SRB, and the absorbances at 540 nm was measured using a plate reader (DYNEX Technologies, Chantilly, Va.).
(§4) In vitro cytotoxicity assay was performed by the same sulforhodamine B (SRB) assay (described above). The compounds shown in Table 8 below where tested for activity against the breast cancer and ovarian cancer cell lines.
On the technique in general: The SRB assay estimates cell density from bound dye.

For test [2], the system named is LNCaP cells. The test can be described thus: Apoptosis sandwich ELISA (DNA-histone complex), LNCaP. Type of test: cell-based, human. As to the method: as §1, §2
Test [3] deals with PPC-1 human prostate cancer cells. The test can be described thus: SRB cytotoxicity assay, PPC-1. Type of test: cell-based. As to conditions: 96 h, read-out: IC50 PPC-1. In short, it runs like this: (§5)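 Antiproliferative effect was assessed by SRB assay after cells had been exposed for 96 h to a concentration series from 0 to 100 μM. Fixed, stained cells were quantified at 540 nm.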

Test [4] deals with PC-3 human prostate cancer cells. The test can be described thus: SRB cytotoxicity assay, PC-3. Type of test: cell-based. The conditions noted are these: Homo sapiens, 96 h, read-out: IC50 PC-3. In short, it runs like this:
as §5

The test system of test [5] is human breast cancer cell line (MCF-7). The test is described as follows: SRB cytotoxicity assay, MCF-7. The test is classed as cell-based. As to conditions: Homo sapiens, MCF7, read-out: IC50 MCF-7. In short, it runs like this:
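Cells plated at 1000–5000 per well by growth rate and exposed to compound (0 to 100 μM) for 96 h, three to five replicates. Cell number read by sulforhodamine B: TCA fixation, 0.4% SRB staining, absorbance at 540 nm.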

The subject of test [6] is CaOv-3 human ovarian cancer cell line. The test can be described thus: SRB cytotoxicity assay, CaOv-3. The test is classed as cell-based. The conditions noted are these: Homo sapiens, Caov-3; Table 8. The method, then: as §3, §4
Test [7] relates to TSU-Pr1 human prostate cancer cells. The test can be described thus: SRB cytotoxicity assay, TSU-Pr1. The test is classed as cell-based. The conditions noted are these: 96 h; for IC50: Homo sapiens, TSU-Pr1, read-out: IC50 TSU-Pr1. In short, it runs like this: as §5
In test [8] the test system is RH7777 rat hepatoma cells. The test can be described thus: SRB cytotoxicity assay, RH7777 control cell line. Type of test: cell-based. As to conditions: for IC50: read-out: IC50 RH7777. In short, it runs like this:
as §5

The subject of test [9] is SKOv-3 human ovarian cancer cell line. The test can be described thus: SRB cytotoxicity assay, SKOv-3. The test is classed as cell-based. As to conditions: Homo sapiens, SK-OV-3; Table 8. As to the method: as §3, §4
The test system of test [10] is LNCaP human prostate cancer cells. The test can be described thus: SRB cytotoxicity assay, LNCaP. The test is classed as cell-based. As to conditions: 96 h; for IC50: Homo sapiens, LNCaP, read-out: IC50 LNCaP. In short, it runs like this:
as §5

The test system of test [11] is DU-145 human prostate cancer cells. The test is described as follows: SRB cytotoxicity assay, DU-145. Type of test: cell-based. As to conditions: Homo sapiens, DU-145, read-out: IC50 DU-145, 96 h. In short, it runs like this: as §5
Test [12] relates to LNCaP cells. The test can be described thus: DNA fragmentation by agarose gel electrophoresis. Type of test: cell-based, human. As to conditions: treated 24 to […], FIGS. 4A-B. The method, then:
In FIG. 4B, the dose and exposure time are indicated for compound 5 as follows: lane 1, 100 bp DNA marker; lane 2, […] for 24 h; lane 3, 5 μM for 48 h; lane 4, 5 μM for 72 h; lane 5, 5 μM for 96 h; lane 6, 3 μM for 96 h; lane 7, 8 μM for 48 h; and lane 8, 8 μM for 72 h;

Test [13] deals with five human prostate cancer cell lines (DU-145, PC-3, LNCaP, PPC-1, TSU-Pr1). The test can be described thus: SRB cytotoxicity assay, statements over several cell lines. Type of test: cell-based. The method, then: as §3
The antiproliferative activity of all the synthesized compounds was evaluated against five human prostate cancer cell lines and in RH7777 cells (negative control) using the sulforhodamine B (SRB) assay (see description in Example 5 above). […]

Test [14] concerns CHO cells (CHO-1, CHO-K1). The test can be described thus: SRB cytotoxicity assay, CHO. Type of test: cell-based. As to conditions: Table 9; negative control cell line; 96 h. As to the method:
as §3, §4
Cells were exposed to a wide range of concentrations (0 to 100 μM) of the particular compound for 96 h in 96 well plates. Cells were fixed with 10% trichloroacetic acid, washed five times with water. The plates were air dried overnight and fixed cells were stained with SRB solution. The cellular protein-bound SRB was measured at 540 nm using a plate reader. Cell numbers at the end of the treatment were measured.
Cells were exposed to a wide range of concentrations (0 to 100 μM) of the particular compound for 96 h in 96-well plates. Cells were fixed with 10% trichloroacetic acid, washed five times with water. The plates were air dried overnight and fixed cells were stained with SRB solution. The cellular protein-bound SRB was measured at 540 nm using a plate reader. Cell numbers at the end of the treatment were calculated as a percentage of untreated control.

The subject of the next test is RH7777 cells. The test is described as follows: Apoptosis sandwich ELISA (DNA-histone complex), RH7777. The test is classed as cell-based, rat. As to the method: as §1, §2
[15] abbreviates: Homo sapiens, PPC-1, Example 10 table.
The mark [16] stands for this setting: Table 8, breast cancer cell line.
Setting [17] is: Rattus norvegicus, RH7777, Example 10 table, 0 to 100 μM for 96 h.

Where two headings read alike, the source gives them in different places.

As to `CCCCCCCCCCCCCCCCCCNC(=O)[C@@H]1CSC(c2ccccc2)N1.Cl` (mixture of isomers) [Compound 5-HCI, (2RS, 4R)-2-Phenylthiazolidine-4-carboxylic acid octadecylamide Hydrochloride], the “Apoptosis enrichment factor (ratio of OD405 in treated and un-treated cells)” value was 1.4 with PC-3 cells (2 μM for 72 h); 2.3 in the test on PC-3 cells (5 μM for 72 h); 3.4 in the test on PC-3 cells (10 μM for 72 h); 12.7 in the test with PC-3 cells (20 μM for 72 h); 4.5 in the test with LNCaP cells [2] (2 μM for 72 h); 45.2 in the test on LNCaP cells [2] (5 μM for 72 h). Moreover, the “Apoptosis enrichment factor (ratio of OD405 in treated and un-treated cells)” value with LNCaP cells [2] (10 μM for 72 h) came out at 37.1; in the test with LNCaP cells [2] (20 μM for 72 h), 26.1. For the same compound, the IC50 in test [1] stood at 4.5 µM; in test [3] (setting [15]) it was 2 µM; in test [4] (Example 10 table), 7.8 µM; in [5] (Example 10 table, 96 h), 4.2 µM; in test [5] (setting [16]) it was 4.2 µM; in test [6], 2.5 µM. Moreover, the IC50 in test [7] (Example 10 table) was determined as 5 µM; in test [8] (setting [17]), 25.6 µM; in test [9], 8.5 µM; in test [10] (Example 10 table), 2.1 µM; in test [11] (Example 10 table), 5.4 µM. Also, the “DNA fragmentation (apoptosis)” value in the test with LNCaP cells [12] is “induce cell apoptosis”.
For the compound `CCCCCCCCCCCCCCCCCCNC(=O)c1csc(-c2ccccc2)n1` [Compound 34, 2-phenylthiazole-4-carboxylic acid octadecylamide], the IC50 in test [13] (both prostate and RH7777 cells, read-out: No activity below (concentration)) is more than 20 µM; in test [3] (Homo sapiens, PPC-1, Table 4), more than 20 µM; in test [4] (Table 4), more than 20 µM; in [5] (setting [16]), more than 20 µM; in test [7] (Table 4) it was more than 20 µM; in test [8] (Rattus norvegicus, RH7777, Table 4, control cell line, 96 h), more than 20 µM. For the same compound, the IC50 in test [10] (Table 4) and in test [11] (Table 4) was more than 20 µM each time.
For the compound `CCCCCCCCC=CCCCCCCCC(=O)NCCO` [compound 319], the “Activity against DU-145, PC-3, and LNCaP prostate cancer cell lines” value in [13] is given as “did not show any activity”. Also, the IC50 in test [3] (Table 9) was more than 20 µM; in test [14] it was more than 20 µM; in test [8] (Table 9, negative control cell line, 96 h) it was more than 20 µM. Moreover, the “IC50 TSU” value in test [7] (Table 9) is “Not”. For the same compound, the “IC50 LNCaP” value in [10] (Table 9) was “Not Active”.
In the case of `CCCCCCCCCCCCCCNC(=O)[C@@H]1CSC(c2ccccc2)N1.Cl` (mixture of isomers) [Compound 4-HCI, (2RS, 4R)-2-Phenylthiazolidine-4-carboxylic acid tetradecylamide Hydrochloride], the “Apoptosis enrichment factor (ratio of OD405 in treated and un-treated cells)” value is 1.8 in the test on PC-3 cells (2 μM for 72 h); 18.7 in the test on PC-3 cells (5 μM for 72 h); 54.0 with PC-3 cells (10 μM for 72 h); 14.1 in the test on LNCaP cells [2] (2 μM for 72 h); 75.4 with LNCaP cells [2] (5 μM for 72 h); 80.7 with LNCaP cells [2] (10 μM for 72 h). Besides, the “Apoptosis enrichment factor (ratio of OD405 in treated and un-treated cells)” value in the test on RH7777 cells (2 μM for 72 h) turned out to be 2.6; in the test on RH7777 cells (5 μM for 72 h), 3.2; in the test on RH7777 cells (10 μM for 72 h), 2.5. The IC50 was 1.6 µM in test [1]; 1.3 µM in test [3] (setting [15]); 3 µM in [4] (Example 10 table); 4.2 µM in test [5] (Example 10 table, 96 h); 2.4 µM in [5] (setting [16]); 13.9 µM in test [6]. Further, the IC50 in test [7] (Example 10 table) is 2 µM; in test [8] (setting [17]) it was 3.4 µM; in test [9] it was 2.1 µM; in test [10] (Example 10 table), 1.4 µM; in test [11] (Example 10 table) it was 2.4 µM. For the same compound, in test [8], the “Fold less selective against RH7777 cell line than compound 5” value amounted to 8 fold. Moreover, the “DNA fragmentation (apoptosis)” value in the test on LNCaP cells [12] was “induce cell apoptosis”.
